{"source": "PubChem BioAssay (NCI)", "experiment_in_all_cases": "inhibition of tumour cell growth, NCI panel, 48 h", "key": {"[1]": {"system": "CCRF-CEM leukemia"}, "[2]": {"system": "HCC-2998 colon"}, "[3]": {"system": "OVCAR-5 ovarian"}, "[4]": {"system": "K-562 leukemia"}, "[5]": {"system": "MOLT-4 leukemia"}, "[6]": {"system": "HCT-15 colon"}, "[7]": {"system": "SK-MEL-28 melanoma"}, "[8]": {"system": "KM20L2 colon"}, "[9]": {"system": "M14 melanoma"}, "[10]": {"system": "NCI-H522 lung"}, "[11]": {"system": "RPMI-8226 leukemia"}, "[12]": {"system": "A498 renal"}, "[13]": {"system": "SK-MEL-5 melanoma"}, "[14]": {"system": "SW-620 colon"}, "[15]": {"system": "OVCAR-8 ovarian"}, "[16]": {"system": "SK-OV-3 ovarian"}, "[17]": {"system": "SF-295 CNS"}, "[18]": {"system": "HOP-92 NSCLC"}, "[19]": {"system": "SN12C renal"}, "[20]": {"system": "HL-60(TB) leukemia"}, "[21]": {"system": "OVCAR-4 ovarian"}, "[22]": {"system": "UO-31 renal"}, "[23]": {"system": "NCI-H460 lung"}, "[24]": {"system": "ACHN renal"}, "[25]": {"system": "SF-268 CNS"}, "[26]": {"system": "CAKI-1 renal"}, "[27]": {"system": "UACC-62 melanoma"}, "[28]": {"system": "786-0 renal"}, "[29]": {"system": "HOP-62 NSCLC"}, "[30]": {"system": "HCT-116 colon"}, "[31]": {"system": "SNB-19 CNS"}, "[32]": {"system": "LOX IMVI melanoma"}, "[33]": {"system": "NCI-H23 lung"}, "[34]": {"system": "U251 CNS"}, "[35]": {"system": "SF-539 CNS"}, "[36]": {"system": "KM12 colon"}, "[37]": {"system": "A549 NSCLC"}, "[38]": {"system": "MALME-3M melanoma"}, "[39]": {"system": "RXF 393 renal"}, "[40]": {"system": "OVCAR-3 ovarian"}, "[41]": {"system": "NCI-H226 lung"}, "[42]": {"system": "SNB-75 CNS"}, "[43]": {"system": "COLO 205 colon"}, "[44]": {"system": "EKVX NSCLC"}, "[45]": {"system": "UACC-257 melanoma"}, "[46]": {"system": "SK-MEL-2 melanoma"}, "[47]": {"system": "HT29 colon"}, "[48]": {"system": "IGROV1 ovarian"}, "[49]": {"system": "DMS 273 small cell lung"}, "[50]": {"system": "LXFL 529 NSCLC"}, "[51]": {"system": "SR leukemia"}, "[52]": {"system": "M19-MEL melanoma"}, "[53]": {"system": "DMS 114 small cell lung"}, "[54]": {"system": "DLD-1 colon"}, "[55]": {"system": "TK-10 renal"}, "[56]": {"system": "XF 498 CNS"}}, "note": "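These data come from cells grown in 96-well plates and exposed to compound for 48 hours at five concentrations. Here, GI50 denotes the concentration required for 50% inhibition of growth. TGI: total growth inhibition.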"}
{"molecule": "COc1cccc(/C=N/[N-]C(N)=O)c1[O-].[Cu+2].c1ccncc1", "values": [{"measurement": "TGI", "setting": "[1]", "result": 56.2, "unit": "µM"}, {"measurement": "TGI", "setting": "[2]", "result": "> 100", "unit": "µM"}, {"measurement": "TGI", "setting": "[3]", "result": 45.1, "unit": "µM"}, {"measurement": "TGI", "setting": "[4]", "result": 58.5, "unit": "µM"}, {"measurement": "TGI", "setting": "[5]", "result": 69.3, "unit": "µM"}, {"measurement": "TGI", "setting": "[6]", "result": "> 100", "unit": "µM"}, {"measurement": "TGI", "setting": "[7]", "result": 33.9, "unit": "µM"}, {"measurement": "TGI", "setting": "[8]", "result": "> 100", "unit": "µM"}, {"measurement": "TGI", "setting": "[9]", "result": 31.4, "unit": "µM"}, {"measurement": "TGI", "setting": "[10]", "result": 34.6, "unit": "µM"}, {"measurement": "TGI", "setting": "[11]", "result": 67.1, "unit": "µM"}, {"measurement": "TGI", "setting": "[12]", "result": 45.5, "unit": "µM"}, {"measurement": "TGI", "setting": "[13]", "result": 37.2, "unit": "µM"}, {"measurement": "TGI", "setting": "[14]", "result": 40.8, "unit": "µM"}, {"measurement": "TGI", "setting": "[15]", "result": 86.1, "unit": "µM"}, {"measurement": "TGI", "setting": "[16]", "result": 49.7, "unit": "µM"}, {"measurement": "TGI", "setting": "[17]", "result": 62.4, "unit": "µM"}, {"measurement": "TGI", "setting": "[18]", "result": 31.5, "unit": "µM"}, {"measurement": "TGI", "setting": "[19]", "result": 46.7, "unit": "µM"}, {"measurement": "GI50", "setting": "[20]", "result": 26.5, "unit": "µM"}, {"measurement": "TGI", "setting": "[20]", "result": 55.1, "unit": "µM"}, {"measurement": "TGI", "setting": "[21]", "result": 56.2, "unit": "µM"}, {"measurement": "TGI", "setting": "[22]", "result": 44.3, "unit": "µM"}, {"measurement": "TGI", "setting": "[23]", "result": 31.9, "unit": "µM"}, {"measurement": "TGI", "setting": "[24]", "result": "> 100", "unit": "µM"}, {"measurement": "TGI", "setting": "[25]", "result": 39.2, "unit": "µM"}, {"measurement": "TGI", "setting": "[26]", "result": 31.1, "unit": "µM"}, {"measurement": "TGI", "setting": "[27]", "result": 41.1, "unit": "µM"}, {"measurement": "TGI", "setting": "[28]", "result": 24, "unit": "µM"}, {"measurement": "TGI", "setting": "[29]", "result": 52.1, "unit": "µM"}, {"measurement": "TGI", "setting": "[30]", "result": 32, "unit": "µM"}, {"measurement": "TGI", "setting": "[31]", "result": 25, "unit": "µM"}, {"measurement": "TGI", "setting": "[32]", "result": 36.5, "unit": "µM"}, {"measurement": "TGI", "setting": "[33]", "result": 45.8, "unit": "µM"}, {"measurement": "TGI", "setting": "[34]", "result": 32.2, "unit": "µM"}, {"measurement": "TGI", "setting": "[35]", "result": 54.2, "unit": "µM"}, {"measurement": "TGI", "setting": "[36]", "result": 35.9, "unit": "µM"}, {"measurement": "TGI", "setting": "[37]", "result": 34.9, "unit": "µM"}, {"measurement": "TGI", "setting": "[38]", "result": 28.3, "unit": "µM"}, {"measurement": "TGI", "setting": "[39]", "result": 28.6, "unit": "µM"}, {"measurement": "TGI", "setting": "[40]", "result": 28.8, "unit": "µM"}, {"measurement": "TGI", "setting": "[41]", "result": 44.6, "unit": "µM"}, {"measurement": "TGI", "setting": "[42]", "result": 33.4, "unit": "µM"}, {"measurement": "TGI", "setting": "[43]", "result": 32.2, "unit": "µM"}, {"measurement": "TGI", "setting": "[44]", "result": 65.5, "unit": "µM"}, {"measurement": "TGI", "setting": "[45]", "result": "> 100", "unit": "µM"}, {"measurement": "TGI", "setting": "[46]", "result": 58.5, "unit": "µM"}, {"measurement": "TGI", "setting": "[47]", "result": 85.3, "unit": "µM"}, {"measurement": "TGI", "setting": "[48]", "result": 49.9, "unit": "µM"}]}
{"molecule": "COc1ccc(Nc2cnc3cc(N)ccc3n2)cc1OC", "values": [{"measurement": "TGI", "setting": "[1]", "result": "> 100", "unit": "µM"}, {"measurement": "TGI", "setting": "[2]", "result": "> 100", "unit": "µM"}, {"measurement": "TGI", "setting": "[3]", "result": "> 100", "unit": "µM"}, {"measurement": "TGI", "setting": "[4]", "result": "> 100", "unit": "µM"}, {"measurement": "TGI", "setting": "[5]", "result": "> 100", "unit": "µM"}, {"measurement": "TGI", "setting": "[49]", "result": "> 100", "unit": "µM"}, {"measurement": "TGI", "setting": "[6]", "result": "> 100", "unit": "µM"}, {"measurement": "TGI", "setting": "[50]", "result": "> 100", "unit": "µM"}, {"measurement": "TGI", "setting": "[7]", "result": "> 100", "unit": "µM"}, {"measurement": "TGI", "setting": "[8]", "result": "> 100", "unit": "µM"}, {"measurement": "TGI", "setting": "[9]", "result": "> 100", "unit": "µM"}, {"measurement": "TGI", "setting": "[11]", "result": 86.2, "unit": "µM"}, {"measurement": "TGI", "setting": "[13]", "result": "> 100", "unit": "µM"}, {"measurement": "TGI", "setting": "[14]", "result": "> 100", "unit": "µM"}, {"measurement": "TGI", "setting": "[51]", "result": "> 100", "unit": "µM"}, {"measurement": "TGI", "setting": "[15]", "result": "> 100", "unit": "µM"}, {"measurement": "TGI", "setting": "[52]", "result": "> 100", "unit": "µM"}, {"measurement": "TGI", "setting": "[16]", "result": "> 100", "unit": "µM"}, {"measurement": "TGI", "setting": "[17]", "result": "> 100", "unit": "µM"}, {"measurement": "TGI", "setting": "[18]", "result": 42.5, "unit": "µM"}, {"measurement": "TGI", "setting": "[19]", "result": "> 100", "unit": "µM"}, {"measurement": "TGI", "setting": "[20]", "result": 62.1, "unit": "µM"}, {"measurement": "TGI", "setting": "[22]", "result": "> 100", "unit": "µM"}, {"measurement": "TGI", "setting": "[53]", "result": "> 100", "unit": "µM"}, {"measurement": "TGI", "setting": "[23]", "result": "> 100", "unit": "µM"}, {"measurement": "TGI", "setting": "[24]", "result": "> 100", "unit": "µM"}, {"measurement": "TGI", "setting": "[25]", "result": "> 100", "unit": "µM"}, {"measurement": "TGI", "setting": "[54]", "result": "> 100", "unit": "µM"}, {"measurement": "TGI", "setting": "[27]", "result": "> 100", "unit": "µM"}, {"measurement": "TGI", "setting": "[29]", "result": "> 100", "unit": "µM"}, {"measurement": "TGI", "setting": "[30]", "result": "> 100", "unit": "µM"}, {"measurement": "TGI", "setting": "[32]", "result": "> 100", "unit": "µM"}, {"measurement": "TGI", "setting": "[33]", "result": "> 100", "unit": "µM"}, {"measurement": "TGI", "setting": "[34]", "result": "> 100", "unit": "µM"}, {"measurement": "TGI", "setting": "[36]", "result": "> 100", "unit": "µM"}, {"measurement": "TGI", "setting": "[55]", "result": "> 100", "unit": "µM"}, {"measurement": "TGI", "setting": "[38]", "result": "> 100", "unit": "µM"}, {"measurement": "TGI", "setting": "[39]", "result": "> 100", "unit": "µM"}, {"measurement": "TGI", "setting": "[40]", "result": "> 100", "unit": "µM"}, {"measurement": "TGI", "setting": "[41]", "result": "> 100", "unit": "µM"}, {"measurement": "TGI", "setting": "[42]", "result": "> 100", "unit": "µM"}, {"measurement": "TGI", "setting": "[43]", "result": "> 100", "unit": "µM"}, {"measurement": "TGI", "setting": "[44]", "result": "> 100", "unit": "µM"}, {"measurement": "TGI", "setting": "[45]", "result": "> 100", "unit": "µM"}, {"measurement": "TGI", "setting": "[46]", "result": "> 100", "unit": "µM"}, {"measurement": "TGI", "setting": "[56]", "result": "> 100", "unit": "µM"}, {"measurement": "TGI", "setting": "[47]", "result": "> 100", "unit": "µM"}, {"measurement": "TGI", "setting": "[48]", "result": "> 100", "unit": "µM"}]}
